Test results reported in patent US20240041754A1, “NOVEL SACCHAROMYCES CEREVISIAE STRAIN AND USE THEREOF” (LG HOUSEHOLD & HEALTH CARE LTD., priority 2020, published 2024).

Experiments:
Human dermal fibroblasts = experiment: Collagen synthesis enhancement, procollagen type I C-peptide (PIP) EIA kit; assay type: cell-based; conditions: 10 ppb, 48 hours, vs negative control (DMEM containing 0% serum)
Procedure: Human dermal fibroblasts were treated with each sample for 48 hours. Thereafter, a collagen synthesis rate was measured by detecting collagen using a method of a procollagen type I C-peptide (PIP) EIA kit. The collagen synthesis efficiency of the sample was expressed as an increase rate (%) of collagen synthesis, which was calculated and quantified in comparison to a negative control group (DMEM containing 0% serum).
Increase rate of collagen synthesis (%)=(Collagen synthesis rate of Sample−Collagen synthesis rate of Negative control)/Collagen synthesis rate of Negative control

[1] = system: Human keratinocytes (HaCaT); experiment: Hyaluronic acid synthesis enhancement, Quantikine ELISA Hyaluronan; assay type: cell-based; conditions: 1 ppm, 72 hours, vs negative control (DMEM containing 0% serum)
Procedure: Human keratinocytes (HaCaT) were treated with each sample for 72 hours. Thereafter, a hyaluronic acid synthesis rate was derived by measuring hyaluronic acid using R&D systems' Quantikine ELISA Hyaluronan. The skin moisturizing ability of the sample was expressed as an increase rate (%) of hyaluronic acid synthesis, which was calculated and quantified in comparison to a negative control group (treated with DMEM containing 0% serum).
The calculation formula of the increase rate of hyaluronic acid synthesis, each sample, and the results thereof are shown in Table 6 below.
Increase rate of hyaluronic acid synthesis (%)=(Hyaluronic acid synthesis rate of Sample−Hyaluronic acid synthesis rate of Negative control)/Hyaluronic acid synthesis rate of Negative control

Row | Compound | Increase rate of collagen synthesis (Human dermal fibroblasts) [%] | Increase rate of hyaluronic acid synthesis [1] [%]
1 | TGF-β | 15.2 | –
2 | CC1=C(/C=C/C(C)=C/C=C/C(C)=C/C(=O)O)C(C)(C)CCC1 [Retinoic acid] | – | 13.8
